“Also recorded” adds a separate entry of the source. Where two headings read alike, the source gives them in different places.
Tests used:
Assay type in all cases: cell-based, Human
Jurkat T cells = assay: Cell viability (MTS) of Jurkat T cells pre-stimulated with PMA plus ionomycin, then drug (Embodiment 1)
Procedure: (§1) Human Jurkat T cell line (Clone E6-1, ATCC TIB 152) and THP-1 were used in the embodiments and purchased from Bioresource Collection and Research Centre (BCRC), Taiwan. The cells were maintained in RPMI 1640 medium (Gibco, Carlsbad, Calif., USA) with 2 mM L-glutamine adjusted to contain 1.5 g/L sodium bicarbonate, 4.5 g/L glucose, 10 mM HEPES, 1.0 mM sodium pyruvate, 1% (v/v) penicillin-streptomycin (HyClone, Logan, Utah), and 10% (v/v) fetal bovine serum (FBS; HyClone). The cells were kept in the incubator with 5% CO2 at 37° C. The passages were performed when the cell density didn't allow the cell concentration to exceed 3×10^6 cells/mL.
(§2) Jurkat cells were seeded in 48-well culture plates at a density of 5.0×10^5 cells/mL in culture medium. To promote Interferon gamma (IFN-γ; IFNG) production, the cells were stimulated with or without the combination of PMA and Ionomycin in culture medium. THP-1 cells were treated with or without the LPS that promoted IL6 production.
(§3) The cell viability was determined using MTS reagent (Promega). Assays were performed by adding MTS to each well for 3 hours at 37° C. with 5% CO2. The amount of formazan converted by living cells, and then recording absorbance at 490 nm with a 96-well plate reader.
(§4) After 6 and 24 hours, the supernatants were collected for cell viability analysis and cytokine analysis. The concentration of cytokine was measured by Human IFN-γ ELISA kit (Invitrogen) according to the manufacturers.

IFN-γ [1] = assay: IFN-γ release (ELISA) of Jurkat T cells pre-stimulated with PMA plus ionomycin, then drug (Embodiment 1); conditions: for IFN-γ/cell viability: Jurkat pretreated PMA + ionomycin; for IFN-γ content in the cells is reduced at least: summary, concentration not given
Procedure: as §1, §2
(§5) The culture supernatants were harvested by centrifugation and stored at −20° C. for cytokine analysis. The concentration of IFN-γ and IL6 were measured by ELISA kit (Invitrogen, Carlsbad, Calif., USA) according to the manufacturer's instructions.
as §4

THP-1 cells = assay: Cell viability (MTS) of THP-1 cells pre-stimulated with LPS, then drug (Embodiment 2)
IL6 = IL6 release (ELISA) of THP-1 cells pre-stimulated with LPS, then drug (Embodiment 2); conditions: for IL6/cell viability: THP-1 pretreated LPS; for IL-6 content in the cells is reduced at least: summary, concentration not given
Procedure: HyClone). […] The passages were performed when the cell density didn't allow the cell concentration to exceed 3×10^6 cells/mL. Jurkat cells were seeded in 48-well culture plates at a density of 5.0×10^5 cells/mL in culture medium. To promote Interferon gamma (IFN-γ; IFNG) production, the cells were stimulated with or without the combination of PMA and Ionomycin in culture medium. THP-1 cells were treated with or without the LPS that promoted IL6 production. The culture supernatants were harvested by centrifugation and stored at −20° C. for cytokine analysis. The concentration of IFN-γ and IL6 were measured by ELISA kit (Invitrogen, Carlsbad, Calif., USA) according to the manufacturer's instructions. […] The concentration of cytokine was measured by IL6 ELISA kit (Invitrogen) according to the manufacturers.

Jurkat cells = assay: Cell viability (MTS) of Jurkat cells co-treated with PMA, ionomycin and drug (Embodiments 3 and 4)
Procedure: as §1, §3
(§6) In the Embodiment, Jurkat cells were seeded in 48-well culture plates at a density of 5.0×10^5 cells/mL indifferent culture medium, and each of the culture medium contains PMA, ionomycin, and THZ in the proportions shown in Table 3 below.
(§7) After 24 and 48 hours, the supernatants were collected for cell viability analysis and cytokine analysis. The concentration of cytokine was measured by Human IFN-γ ELISA kit (Invitrogen) according to the manufacturers.
(§8) In the Embodiment, Jurkat cells were seeded in 48-well culture plates at a density of 5.0×10^5 cells/mL in different culture medium, and each of the culture medium contains PMA, ionomycin, and HH-F3 in the proportions shown in Table 4 below.
(§9) After 24, 30, and 48 hours, the supernatants were collected for cell viability analysis and cytokine analysis. The concentration of cytokine was measured by Human IFN-γ ELISA kit (Invitrogen) according to the manufacturers.

IFN-γ [2] = assay: IFN-γ release (ELISA) of Jurkat cells co-treated with PMA, ionomycin and drug (Embodiments 3 and 4); conditions: for inhibition at 1 µM / inhibition at 5 µM: Homo sapiens, Jurkat, read-out: IFN-γ/cell viability lower than group 2 (PI alone); for inhibition at 1 µM: group 3 (THZ 1 μM); for inhibition at 5 µM: group 4 (THZ 5 μM); for effect on cytokine induction, in words: co-treatment with PMA + ionomycin
Procedure: as §1, §5, §6, §7, §8, §9

[3] = drug 1 μM, 6 h, Jurkat pretreated PMA 0.01 μg/mL + ionomycin 1 μM 24 h
[4] = drug 1 μM, 24 h, Jurkat pretreated PMA + ionomycin
[5] = drug 5 μM, 6 h, Jurkat pretreated PMA + ionomycin
[6] = drug 5 μM, 24 h, Jurkat pretreated PMA + ionomycin
[7] = drug 10 μM, 6 h, Jurkat pretreated PMA + ionomycin
[8] = drug 10 μM, 24 h, Jurkat pretreated PMA + ionomycin
[9] = drug 1 μM, 6 h, IFN-γ normalized with cell viability
[10] = drug 1 μM, 6 h, THP-1 pretreated LPS 0.1 μg/mL 16 h
[11] = drug 1 μM, 24 h, THP-1 pretreated LPS
[12] = drug 5 μM, 6 h, THP-1 pretreated LPS
[13] = drug 5 μM, 24 h, THP-1 pretreated LPS
[14] = drug 10 μM, 6 h, THP-1 pretreated LPS
[15] = drug 10 μM, 24 h, THP-1 pretreated LPS
[16] = drug 1 μM, 6 h, IL6 normalized with cell viability
[17] = at 24 hours after administering
[18] = group 3, THZ 1 μM co-treated with PI, 48 hr
[19] = group 4, THZ 5 μM co-treated with PI, 24 hr
[20] = group 4, THZ 5 μM co-treated with PI, 48 hr

O=C(CCCCCCC(=O)Nc1ccccc1)NO [SAHA, Suberoylanilide hydroxamic acid]
Cell Viability (%) (Jurkat T cells; [3]): 70 ± 9% | Cell Viability (%) (Jurkat T cells; [4]): 53 ± 5% | Cell Viability (%) (Jurkat T cells; [5]): 65 ± 7% | Cell Viability (%) (Jurkat T cells; [6]): 59 ± 2% | Cell Viability (%) (Jurkat T cells; [7]): 65 ± 2% | Cell Viability (%) (Jurkat T cells; [8]): 60 ± 6% | IFN-γ/cell viability (IFN-γ [1]; [9]): 25.5 pg/mL | IFN-γ/cell viability (IFN-γ [1]; drug 1 μM, 24 h): 33.8 pg/mL | IFN-γ/cell viability (IFN-γ [1]; drug 5 μM, 6 h): 28.2 pg/mL | IFN-γ/cell viability (IFN-γ [1]; drug 5 μM, 24 h): 34.0 pg/mL | IFN-γ/cell viability (IFN-γ [1]; drug 10 μM, 6 h): 28.0 pg/mL | IFN-γ/cell viability (IFN-γ [1]; drug 10 μM, 24 h): 32.0 pg/mL

CN1CCN(CCCN2c3ccccc3Sc3ccc(C(F)(F)F)cc32)CC1 [TFP, Trifluoperazine]
Cell Viability (%) (Jurkat T cells; [3]): 91 ± 2% | Cell Viability (%) (Jurkat T cells; [4]): 72 ± 5% | Cell Viability (%) (Jurkat T cells; [5]): 88 ± 9% | Cell Viability (%) (Jurkat T cells; [6]): 70 ± 4% | Cell Viability (%) (Jurkat T cells; [7]): 86 ± 4% | Cell Viability (%) (Jurkat T cells; [8]): 72 ± 7% | IFN-γ/cell viability (IFN-γ [1]; [9]): 41.8 pg/mL | IFN-γ/cell viability (IFN-γ [1]; drug 1 μM, 24 h): 39.7 pg/mL | IFN-γ/cell viability (IFN-γ [1]; drug 5 μM, 6 h): 35.7 pg/mL | IFN-γ/cell viability (IFN-γ [1]; drug 5 μM, 24 h): 32.5 pg/mL | IFN-γ/cell viability (IFN-γ [1]; drug 10 μM, 6 h): 40.9 pg/mL | IFN-γ/cell viability (IFN-γ [1]; drug 10 μM, 24 h): 35.6 pg/mL | Cell Viability (%) (THP-1 cells; [10]): 63 ± 6% | Cell Viability (%) (THP-1 cells; [11]): 96 ± 9% | Cell Viability (%) (THP-1 cells; [12]): 75 ± 4% | Cell Viability (%) (THP-1 cells; [13]): 82 ± 9% | Cell Viability (%) (THP-1 cells; [14]): 71 ± 8% | Cell Viability (%) (THP-1 cells; [15]): 75 ± 8% | IL6/cell viability (IL6; [16]): 43.9 pg/mL | IL6/cell viability (IL6; drug 1 μM, 24 h): 42.8 pg/mL | IL6/cell viability (IL6; drug 5 μM, 6 h): 35.6 pg/mL | IL6/cell viability (IL6; drug 5 μM, 24 h): 33.9 pg/mL | IL6/cell viability (IL6; drug 10 μM, 6 h): 32.5 pg/mL | IL6/cell viability (IL6; drug 10 μM, 24 h): 38.4 pg/mL

CSc1ccc2c(c1)N(CCC1CCCCN1C)c1ccccc1S2 (stereo not drawn) [THZ, Thioridazine]
Cell Viability (%) (Jurkat T cells; [3]): 79 ± 5% | Cell Viability (%) (Jurkat T cells; [4]): 69 ± 6% | Cell Viability (%) (Jurkat T cells; [5]): 77 ± 2% | Cell Viability (%) (Jurkat T cells; [6]): 69 ± 4% | Cell Viability (%) (Jurkat T cells; [7]): 77 ± 2% | Cell Viability (%) (Jurkat T cells; [8]): 55 ± 3% | IFN-γ content in the cells reduced (IFN-γ [1]; 1 μM, after 6 hours, vs PMA + ionomycin alone): 18.6% | IFN-γ content in the cells reduced (IFN-γ [1]; 1 μM, after 24 hours): 28.2% | IFN-γ content in the cells reduced (IFN-γ [1]; 5 μM, after 6 hours): 23.7% | IFN-γ content in the cells reduced (IFN-γ [1]; 5 μM, after 24 hours): 57.7% | IFN-γ content in the cells reduced (IFN-γ [1]; 10 μM, after 6 hours): 36.2% | IFN-γ content in the cells reduced (IFN-γ [1]; 10 μM, after 24 hours): 52.2% | effect on IFN-γ content, in words (IFN-γ [1]; Jurkat, PMA + ionomycin, 6 hr and 24 hr): significantly decreased IFN-γ expression; also recorded: stronger effects to cells compared to TFP and SAHA | IFN-γ content in the cells is reduced at least (IFN-γ [1]; at 6 hours after administering): at least 18.6% | IFN-γ content in the cells is reduced at least (IFN-γ [1]; [17]): at least 28.2% | IFN-γ/cell viability (IFN-γ [1]; [9]): 38.4 pg/mL | IFN-γ/cell viability (IFN-γ [1]; drug 1 μM, 24 h): 24.4 pg/mL | IFN-γ/cell viability (IFN-γ [1]; drug 5 μM, 6 h): 36.0 pg/mL | IFN-γ/cell viability (IFN-γ [1]; drug 5 μM, 24 h): 14.4 pg/mL | IFN-γ/cell viability (IFN-γ [1]; drug 10 μM, 6 h): 30.1 pg/mL | IFN-γ/cell viability (IFN-γ [1]; drug 10 μM, 24 h): 16.3 pg/mL | Cell Viability (%) (THP-1 cells; [10]): 88 ± 7% | Cell Viability (%) (THP-1 cells; [11]): 103 ± 1% | Cell Viability (%) (THP-1 cells; [12]): 79 ± 5% | Cell Viability (%) (THP-1 cells; [13]): 101 ± 8% | Cell Viability (%) (THP-1 cells; [14]): 68 ± 4% | Cell Viability (%) (THP-1 cells; [15]): 87 ± 5% | IL-6 content in the cells reduced (IL6; 1 μM, after 6 hours, vs LPS alone): 20.7% | IL-6 content in the cells reduced (IL6; 1 μM, after 24 hours): 39.5% | IL-6 content in the cells reduced (IL6; 5 μM, after 6 hours): 37.1% | IL-6 content in the cells reduced (IL6; 5 μM, after 24 hours): 51.8% | IL-6 content in the cells reduced (IL6; 10 μM, after 6 hours): 45.9% | IL-6 content in the cells reduced (IL6; 10 μM, after 24 hours): 65.2% | IL-6 content in the cells is reduced at least (IL6; "at hours after administering" (number not given)): at least 20.7% | effect on IL-6 content, in words (IL6; Table 2, 6 hr and 24 hr): stronger effects to cells compared to TFP | IL-6 content in the cells is reduced at least (IL6; [17]): at least 39.5% | IL6/cell viability (IL6; [16]): 52.9 pg/mL | IL6/cell viability (IL6; drug 1 μM, 24 h): 41.3 pg/mL | IL6/cell viability (IL6; drug 5 μM, 6 h): 41.9 pg/mL | IL6/cell viability (IL6; drug 5 μM, 24 h): 32.9 pg/mL | IL6/cell viability (IL6; drug 10 μM, 6 h): 36.1 pg/mL | IL6/cell viability (IL6; drug 10 μM, 24 h): 23.7 pg/mL | effect on cell viability, in words (Jurkat cells; co-treatment with PMA + ionomycin): does not affect cell viability | Cell Viability (%) (Jurkat cells; [18]): 71 ± 4% | Cell Viability (%) (Jurkat cells; group 3, THZ 1 μM co-treated with PMA 0.01 μg/mL + ionomycin 1 μM, 24 hr): 81 ± 4% | Cell Viability (%) (Jurkat cells; [19]): 74 ± 6% | Cell Viability (%) (Jurkat cells; [20]): 65 ± 4% | inhibition at 1 µM (IFN-γ [2]; 24 hr): 46.5% | inhibition at 1 µM (IFN-γ [2]; 48 hr): 18.7% | inhibition at 5 µM (IFN-γ [2]; 24 hr): 45.3% | inhibition at 5 µM (IFN-γ [2]; 48 hr): 1% | effect on cytokine induction, in words (IFN-γ [2]): significantly attenuated cytokine induction in Jurkat cells | effect on cytokine induction, in words (IFN-γ [2]; listed as Thioridazine): able to reduce cytokine production | IFN-γ/cell viability (IFN-γ [2]; group 3, THZ 1 μM co-treated with PI, 24 hr): 34.9 ± 0.5 pg/mL | IFN-γ/cell viability (IFN-γ [2]; [18]): 32.6 ± 0.6 pg/mL | IFN-γ/cell viability (IFN-γ [2]; [19]): 35.7 ± 0.2 pg/mL | IFN-γ/cell viability (IFN-γ [2]; [20]): 39.7 ± 0.6 pg/mL
